Earlier results, collected in patent US10194661B2, “Methods of making dazomet compositions” (priority 2013, dated 2019).

Columns and labels:
bees such as honeybees = conditions: application to wood, which prevents exposure to bees

SMILES | share of dazomet decomposition products (major product) (dazomet exposed to wood or moist soils) | theoretical maximum decomposition rate / stoichiometric conversion rate to MITC (in wood) | toxicity to bees (bees such as honeybees)
CN=C=S [MITC, methyl isothiocyanate] | approximately 98% |  | 
CN1CSC(=S)N(C)C1 [dazomet, Tetrahydro-3,5-dimethyl-2H-1,3,5-thiadiazine-2-thione] |  | approximately 45% | relatively non-toxic and harmless
